From ChEMBL document CHEMBL1138734, “Modulation of binding strength in several classes of active site inhibitors of acetylcholinesterase studied by comparative binding energy analysis” (J Med Chem, 2004)

target: T1, Acetylcholinesterase (Homo sapiens, UniProt P22303)
T1 sequence (P22303 whole entry): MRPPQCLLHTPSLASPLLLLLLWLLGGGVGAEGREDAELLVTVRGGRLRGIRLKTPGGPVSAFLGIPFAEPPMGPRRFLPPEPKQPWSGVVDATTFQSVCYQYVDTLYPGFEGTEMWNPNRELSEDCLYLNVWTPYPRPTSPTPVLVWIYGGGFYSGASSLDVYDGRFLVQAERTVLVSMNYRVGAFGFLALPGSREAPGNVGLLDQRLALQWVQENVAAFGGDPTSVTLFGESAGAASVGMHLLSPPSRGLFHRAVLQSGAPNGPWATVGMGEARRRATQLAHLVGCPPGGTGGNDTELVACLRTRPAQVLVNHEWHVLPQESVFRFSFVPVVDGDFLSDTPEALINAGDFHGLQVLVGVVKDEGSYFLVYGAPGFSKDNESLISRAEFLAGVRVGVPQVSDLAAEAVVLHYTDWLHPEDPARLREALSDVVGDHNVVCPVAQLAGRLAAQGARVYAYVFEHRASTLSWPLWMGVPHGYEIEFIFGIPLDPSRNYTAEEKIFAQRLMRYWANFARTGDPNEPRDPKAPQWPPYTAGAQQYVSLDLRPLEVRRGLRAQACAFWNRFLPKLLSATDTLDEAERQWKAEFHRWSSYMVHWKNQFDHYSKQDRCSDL
Description: In vitro inhibitory activity against human erythrocyte acetylcholinesterase

Going from `Nc1c2c(nc3cccc(F)c13)C1CC(C2)C1` to `Nc1c2c(nc3ccc(O)cc13)CCCC2`, the IC50 rises from 28.8 nM to 162 nM (5.6-fold). The first is the more potent here.

target: T1, Acetylcholinesterase; remark: another data set of the same source
Description: Inhibitory activity against human erythrocyte acetylcholinesterase

`C=C1c2c(Cl)cccc2N=C2CCCCCN12` and `C=C1c2cccc(Cl)c2N=C2CCCCCN12` are within 1.5-fold of each other in IC50: 1700 nM for the first, 1510 nM for the second.

First: C=C1c2ccc(Cl)cc2N=C2CCCCCN12
Second: C=C1c2cc(Cl)ccc2N=C2CCCCCN12
The IC50 of the first is 3.2-fold lower: 158 nM for the first, 501 nM for the second.

First: C=C1c2ccccc2N=C2CCCCCN12
Second: O=c1c2ccc(Cl)cc2nc2n1CCCCC2
The IC50 of the first is lower: 3720 nM for the first, > 100000 nM for the second.

Going from `Nc1c2c(nc3cnccc13)OCCC2` to `Nc1c2c(nc3ccc(Cl)cc13)OCCC2`, the IC50 falls from 41700 nM to 10000 nM (4.2-fold). The second is the more potent here.

Going from `Nc1c2c(nc3cccc(F)c13)CCCC2` to `S=c1c2ccc(Cl)cc2nc2n1CCCCC2`, the IC50 rises from 79.4 nM to > 100000 nM.

Work on `CCC1=CC2Cc3nc4cc(Cl)ccc4c(N)c3C(C1)C2` (stereo not given) yielded an IC50 of 0.324 nM.

target: T1, Acetylcholinesterase; assay: Inhibitory activity against of human erythrocyte acetylcholinesterase

`NC1=C2CCCCC2=NC2CCCCC12` (stereo not given) showed an IC50 of 363 nM.

target: T2, Acetylcholinesterase (Bos taurus, UniProt P23795)
T2 sequence (P23795 whole entry): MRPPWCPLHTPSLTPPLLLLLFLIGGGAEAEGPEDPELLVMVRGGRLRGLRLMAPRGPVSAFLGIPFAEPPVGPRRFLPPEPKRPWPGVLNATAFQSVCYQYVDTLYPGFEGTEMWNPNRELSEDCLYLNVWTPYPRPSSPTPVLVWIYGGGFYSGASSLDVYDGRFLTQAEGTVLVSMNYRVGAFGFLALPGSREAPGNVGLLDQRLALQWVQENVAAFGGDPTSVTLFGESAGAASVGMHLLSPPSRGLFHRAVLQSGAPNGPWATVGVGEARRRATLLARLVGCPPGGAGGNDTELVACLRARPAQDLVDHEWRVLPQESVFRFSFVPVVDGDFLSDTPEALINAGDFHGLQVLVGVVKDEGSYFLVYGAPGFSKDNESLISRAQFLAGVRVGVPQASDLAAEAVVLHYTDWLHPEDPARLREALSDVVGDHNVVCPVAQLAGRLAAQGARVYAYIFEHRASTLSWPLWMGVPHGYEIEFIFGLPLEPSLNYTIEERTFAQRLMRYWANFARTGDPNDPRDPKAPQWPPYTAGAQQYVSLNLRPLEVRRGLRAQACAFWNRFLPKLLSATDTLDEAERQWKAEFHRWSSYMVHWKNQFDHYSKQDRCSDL
Description: In vitro inhibitory activity against bovine acetylcholinesterase

In the case of `CCC1=CC2Cc3nc4cc(Cl)ccc4c(N)c3C(C1)C2` (stereo not given), the IC50 is reported as 1.29 nM.
